Biological target: T1, KCNQ 2/3 channels (Homo sapiens, UniProt O43525+O43526)
T1 construct: expressed in transfected cells; host or cells: HEK293
Assay: KCNQ 2/3 channel activation, thallium flux FLIPR assay (BTC-AM dye)
Assay type: cell-based
Conditions: for Emax: HEK293, maximum response relative to the response of 10 μM retigabine (set at 100%), read-out: % MAX; for EC50: HEK293 cells stably expressing human KCNQ2 and KCNQ3 subunits, thallium-induced fluorescence, 4 min compound incubation
Outline: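 HEK293 cells stably expressing human KCNQ2/KCNQ3 were loaded with BTC-AM (3 μg/mL, 2 h, RT) and preincubated with compound for 4 min in pH 7.3 gluconate buffer containing 0.1 mM ouabain. Flux was triggered by 6 mM TlNO3/10 mM K2SO4 and read for 3 min; EC50 came from summed responses over basal, with maximum relative to 10 μM retigabine (100%).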

SMILES: CC(C)(C)C(=O)NCc1nn(NC(=O)Cc2ccc(Cl)cc2)c(=O)c2ccccc12 [Example 87, N-[(3-{[(4-chlorophenyl)acetyl]amino}-4-oxo-3,4-dihydrophthalazin-1-yl)methyl]-2,2-dimethylpropanamide]
- Emax (HEK293 KCNQ2/KCNQ3 cells): 89.1%
- EC50: 10100 nM

SMILES: CCOC(=O)C(C)c1nn(NC(=O)Cc2ccc(Cl)cc2)c(=O)c2ccccc12 (stereo not drawn) [Example 109, ethyl 2-(3-{[(4-chlorophenyl)acetyl]amino}-4-oxo-3,4-dihydrophthalazin-1-yl)propanoate]
- Emax (HEK293 KCNQ2/KCNQ3 cells): 53.2%
- EC50: 1420 nM

SMILES: O=C(CC1CC2CCC1C2)Nn1nc(SCc2ccccc2)c2ccccc2c1=O (racemic) [Example 214, (±)-N-[4-(benzylsulfanyl)-1-oxophthalazin-2(1H)-yl]-2-[(exo)-bicyclo[2.2.1]hept-2-yl]acetamide]
- Emax (HEK293 KCNQ2/KCNQ3 cells): 197%
- EC50: 21.7 nM

SMILES: O=C(CC1CC2CCC1C2)Nn1nc(S(=O)(=O)c2ccccc2)c2ccccc2c1=O (racemic) [Example 70, (±)-2-[(exo)-bicyclo[2.2.1]hept-2-yl]-N-[1-oxo-4-(phenylsulfonyl)phthalazin-2(1H)-yl]acetamide]
- Emax (HEK293 KCNQ2/KCNQ3 cells): 179%
- EC50: 13.1 nM

SMILES: CC(C)(C)CNC(=O)Cc1nn(NC(=O)Cc2ccc(Cl)cc2)c(=O)c2ccccc12 [Example 123, 2-(4-chlorophenyl)-N-[4-{2-[(2,2-dimethylpropyl)amino]-2-oxoethyl}-1-oxophthalazin-2(1H)-yl]acetamide]
- Emax (HEK293 KCNQ2/KCNQ3 cells): 13%

SMILES: O=C(Cc1cc(F)cc(F)c1)Nn1nc(N2CCCC2)c2ccccc2c1=O [Example 20, 2-(3,5-difluorophenyl)-N-[1-oxo-4-(pyrrolidin-1-yl)phthalazin-2(1H)-yl]acetamide]
- Emax (HEK293 KCNQ2/KCNQ3 cells): 145%
- EC50: 214 nM

SMILES: O=C(Cc1ccc(Cl)cc1)Nn1nc(S(=O)(=O)c2ccc(Br)cc2)c2ccccc2c1=O [Example 199, N-{4-[(4-bromophenyl)sulfonyl]-1-oxophthalazin-2(1H)-yl}-2-(4-chlorophenyl)acetamide]
- Emax (HEK293 KCNQ2/KCNQ3 cells): 79.2%
- EC50: 48.9 nM

SMILES: COc1ccccc1CC(=O)Nn1nc(N2CCOCC2)c2ccccc2c1=O [Example 145, 2-(2-methoxyphenyl)-N-[4-(morpholin-4-yl)-1-oxophthalazin-2(1H)-yl]acetamide]
- Emax (HEK293 KCNQ2/KCNQ3 cells): 1.73%

SMILES: O=C(CC1CC2CCC1C2)Nn1nc(Cc2ccncc2)c2ccccc2c1=O (racemic) [Example 97, (±)-2-[(exo)-bicyclo[2.2.1]hept-2-yl]-N-[1-oxo-4-(pyridin-4-ylmethyl)phthalazin-2(1H)-yl]acetamide]
- Emax (HEK293 KCNQ2/KCNQ3 cells): 173%
- EC50: 2700 nM

SMILES: CN1CCN(c2nn(NC(=O)Cc3ccc(Cl)cc3)c(=O)c3ccccc23)CC1 [Example 107, 2-(4-chlorophenyl)-N-[4-(4-methylpiperazin-1-yl)-1-oxophthalazin-2(1H)-yl]acetamide]
- Emax (HEK293 KCNQ2/KCNQ3 cells): 24.3%

SMILES: O=C(CC1CC2CCC1C2)Nn1nc(C(=O)N2CCOCC2)c2ccccc2c1=O (racemic) [Example 95, (±)-2-[(exo)-bicyclo[2.2.1]hept-2-yl]-N-[4-(morpholin-4-ylcarbonyl)-1-oxophthalazin-2(1H)-yl]acetamide]
- Emax (HEK293 KCNQ2/KCNQ3 cells): 73%

SMILES: CC1CN(c2nn(NC(=O)CC3CC4CCC3C4)c(=O)c3ccccc23)CC(C)O1 (racemic) [Example 90, (±)-2-[(exo)-bicyclo[2.2.1]hept-2-yl]-N-{4-[(cis)-2,6-dimethylmorpholin-4-yl]-1-oxophthalazin-2(1H)-yl}acetamide]
- EC50: 141 nM
- % MAX (maximum response relative to the response of 10 μM retigabine (set at 100%), HEK293 KCNQ2/KCNQ3 cells): 196%

SMILES: O=C(CC1CC2CCC1C2)Nn1nc(-c2cccs2)c2ccccc2c1=O (racemic) [Example 12, (±)-2-[(exo)-bicyclo[2.2.1]hept-2-yl]-N-[1-oxo-4-(thiophen-2-yl)phthalazin-2(1H)-yl]acetamide]
- Emax (HEK293 KCNQ2/KCNQ3 cells): 136%
- EC50: 67.4 nM

SMILES: CC(C)(C)OC(=O)NCc1nn(NC(=O)CC2CCCCC2)c(=O)c2ccccc12 [Example 126, tert-butyl({3-[(cyclohexylacetyl)amino]-4-oxo-3,4-dihydrophthalazin-1-yl}methyl)carbamate]
- Emax (HEK293 KCNQ2/KCNQ3 cells): 25.6%

SMILES: O=C(Cc1ccc(OC(F)(F)F)cc1)Nn1nc(N2CCOCC2)c2ccccc2c1=O [Example 132, N-[4-(morpholin-4-yl)-1-oxophthalazin-2(1H)-yl]-2-[4-(trifluoromethoxy)phenyl]acetamide]
- Emax (HEK293 KCNQ2/KCNQ3 cells): 105%
- EC50: 1690 nM

SMILES: O=C(Cc1ccc(O)cc1)Nn1nc(N2CCOCC2)c2ccccc2c1=O [Example 144, 2-(4-hydroxyphenyl)-N-[4-(morpholin-4-yl)-1-oxophthalazin-2(1H)-yl]acetamide]
- Emax (HEK293 KCNQ2/KCNQ3 cells): 39.9%
- EC50: 6870 nM

SMILES: Nc1ccc(S(=O)(=O)c2nn(NC(=O)Cc3ccc(Cl)cc3)c(=O)c3ccccc23)cc1 [Example 115, N-{4-[(4-aminophenyl)sulfonyl]-1-oxophthalazin-2(1H)-yl}-2-(4-chlorophenyl)acetamide]
- Emax (HEK293 KCNQ2/KCNQ3 cells): 42.2%

SMILES: Cc1ccc(C)c(CC(=O)Nn2nc(N3CCOCC3)c3ccccc3c2=O)c1 [Example 167, 2-(2,5-dimethylphenyl)-N-[4-(morpholin-4-yl)-1-oxophthalazin-2(1H)-yl]acetamide]
- Emax (HEK293 KCNQ2/KCNQ3 cells): 3%

SMILES: CC(C)(C)NC(=O)Cc1nn(NC(=O)Cc2ccc(Cl)cc2)c(=O)c2ccccc12 [Example 122, N-{4-[2-(tert-butylamino)-2-oxoethyl]-1-oxophthalazin-2(1H)-yl}-2-(4-chlorophenyl)acetamide]
- Emax (HEK293 KCNQ2/KCNQ3 cells): 14.2%

SMILES: O=C(CC1CC2CCC1C2)Nn1nc(-c2ccccn2)c2ccccc2c1=O (racemic) [Example 19, (±)-2-[(exo)-bicyclo[2.2.1]hept-2-yl]-N-[1-oxo-4-(pyridin-2-yl)phthalazin-2(1H)-yl]acetamide]
- Emax (HEK293 KCNQ2/KCNQ3 cells): 146%
- EC50: 168 nM

SMILES: O=C(Cc1ccc(Oc2ccccc2)cc1)Nn1nc(N2CCOCC2)c2ccccc2c1=O [Example 163, N-[4-(morpholin-4-yl)-1-oxophthalazin-2(1H)-yl]-2-(4-phenoxyphenyl)acetamide]
- Emax (HEK293 KCNQ2/KCNQ3 cells): 30.8%

SMILES: COc1ccc(CC(=O)Nn2nc(N3CCOCC3)c3ccccc3c2=O)cc1 [Example 147, 2-(4-methoxyphenyl)-N-[4-(morpholin-4-yl)-1-oxophthalazin-2(1H)-yl]acetamide]
- Emax (HEK293 KCNQ2/KCNQ3 cells): 18.7%

SMILES: CC(C)(C)S(=O)(=O)c1nn(NC(=O)Cc2ccc(Cl)cc2)c(=O)c2ccccc12 [Example 201, N-[4-(tert-butylsulfonyl)-1-oxophthalazin-2(1H)-yl]-2-(4-chlorophenyl)acetamide]
- Emax (HEK293 KCNQ2/KCNQ3 cells): 92.3%
- EC50: 738 nM

SMILES: O=C(CC1CC2CCC1C2)Nn1nc(C(=O)c2ccccc2)c2ccccc2c1=O (racemic) [Example 40, (±)-N-(4-benzoyl-1-oxophthalazin-2(1H)-yl)-2-[(exo)-bicyclo[2.2.1]hept-2-yl]acetamide]
- Emax (HEK293 KCNQ2/KCNQ3 cells): 135%
- EC50: 31.1 nM

SMILES: O=C(CC1CC2CCC1C2)Nn1nc(Sc2ccccc2)c2ccccc2c1=O (racemic) [Example 59, (±)-2-[(exo)-bicyclo[2.2.1]hept-2-yl]-N-[1-oxo-4-(phenylsulfanyl)phthalazin-2(1H)-yl]acetamide]
- Emax (HEK293 KCNQ2/KCNQ3 cells): 192%
- EC50: 14.6 nM

SMILES: CCC1CN(c2nn(NC(=O)Cc3ccc(Cl)cc3)c(=O)c3ccccc23)CCO1 (stereo not drawn) [Example 221, 2-(4-chlorophenyl)-N-[4-(2-ethylmorpholin-4-yl)-1-oxophthalazin-2(1H)-yl]acetamide]
- Emax (HEK293 KCNQ2/KCNQ3 cells): 101%
- EC50: 320 nM

Source: patent US8859549B2, “Potassium channel modulators” (AbbVie, Inc., priority 2011, dated 2014)
